Read-outs that look alike come from different tables or passages of the source.
Legend:
[1] = target: T1, msDRD1 (Mus musculus, UniProt Q61616); settings: cited from earlier work
T1 construct: expressed in transfected cells; host or cells: HEK293T

[2] = target: dLight1.3b (Homo sapiens, UniProt P21728); test: DA titrations on dLight1.3b-expressing HEK293 cells (confocal fluorescence imaging); type: cell-based
Method: Cells were transfected at 50–60% confluency in glass-bottomed dishes (either individually or in 24-well plates) using the Effectene transfection kit (Qiagen) according to manufacturer instructions, and imaged 24–48 h after transfection. The Flp-In™ T-REx™ 293 cells (Thermo Fisher) with a stably integrated dLight1.3b cassette[48] were cultured as follows: the cells were cultured using HEK293T cell medium with the addition of Blasticidin (15 µg/ml) and Hygromycin B (200 µg/ml). To induce the expression of dLight1.3b, doxycycline (500 ng/ml) was added to the culture medium for 24–48 hours. Before imaging, cells were rinsed with 1 mL of Hank’s Balanced Salt Solution (HBSS, Life Technologies) supplemented with Ca^2+ (2 mM) and Mg^2+ (1 mM), and imaged at room temperature with a final HBSS volume of either 100 µL for each individual 1.5 cm glass bottom dish, or 500 µL for 24-well plates. Time-lapse imaging was performed on an inverted Zeiss LSM 800 confocal microscope using a 488 nm laser and a 40X oil-based objective. During imaging, ligands were added in bolus on the cells using a micropipette to reach the final specified concentrations of ligand over the cells. For quantification, except otherwise noted, regions of interest (ROI) were selected manually using the threshold function of Fiji to isolate the cell membrane. Sensor response (∆F/F) was calculated as the following: (F(t)-F_base)/F_base with F(t) being the ROI fluorescence value at each time point (t), and F_base being the mean fluorescence of the 10-time points immediately prior to ligand addition.

[3] = tested on: human DRD1 (hmDRD1); settings: cited from earlier work
[4] = tested on: 14 other human targets (including D5, D2, Beta-1, Beta-2 and 5-HT6); set-up: method as in Hao et al., 2019; settings: at 10 uM; ref Hao et al., 2019; cited from earlier work
[5] = set-up: method as in Bruns et al., 2018; settings: ref Bruns et al., 2018, cited from earlier work
[6] = tested on: dLight1.3b; test: Two-photon dLight1.3b imaging in acute brain slices; set-up: species or system mouse
Method: Coronal brain slices (240 µm) containing the striatum and PFC were prepared from AAV-injected mice after 3–4 weeks of viral expression. Briefly, mice were deeply anesthetized with isoflurane and trans-cardially perfused with ice-cold cutting solution containing (in mM): 75 NaCl, 50 sucrose, 6 MgCl2, 2.5 KCl, 1.2 NaH2PO4, 0.1 CaCl2, 25 NaHCO3, and 2.5 D-glucose (bubbled with 5% CO2 in O2). The brain was quickly removed and sectioned using a vibrating blade microtome (VT1200S; Leica) before slices were transferred to an incubation chamber filled with artificial cerebrospinal fluid (ACSF) containing (in mM): 126 NaCl, 2.5 KCl, 1.2 MgCl2, 1.2 NaH2PO4, 2.5 CaCl2, 21.4 NaHCO3, 11.1 D-glucose and 10 µM MK-801 (34 °C, bubbled with 5% CO2 in O2, pH 7.4). After 45 min equilibration, slices were individually transferred to a recording chamber for 2 P imaging. NMDA, AMPA, GABA-A, nicotinic, and muscarinic receptors were blocked using 10 µM MK801, 10 µM DNQX, 100 µM picrotoxin, 1 µM DHBE, and 0.3 µM scopolamine, respectively. Changes of dLight fluorescence were measured by 2 P laser scanning microscopy, using a custom-built BX51WI microscope (Olympus). Excitation (920 nm) was provided by a pulsed Ti:Sapphire laser (Chameleon Ultra I; Coherent) and scanned using a pair of X-Y galvanometer mirrors (6215; Cambridge Technology). Emission was collected by a water immersion objective (60x, N.A. 1.00; Olympus) and filtered (ET680sp and ET525/50m-2P; Chroma) before detection by GaAsP photomultiplier tube (PMT, H10770PA-40; Hamamatsu). The temporal kinetics of fluorescence changes were captured using fast acquisition speed (2 kHz), ‘spot photometry’ (Toronado; B.W. Strowbridge), by scanning the laser around a circular path ([…] diameter) centered at the tip of the stimulating electrode or iontophoresis pipette which was visualized in the red channel (ET620/60 m; Chroma). The spatial dynamics of dLight fluorescence were captured by rasterized movie acquisition (30 × 40 µm, 3 Hz) and analyzed using ImageJ. Exogenous DA was applied by iontophoresis, using a thin-walled glass pipette filled with DA (1 M) and sulforhodamine 101 (300 µM), and ejected by short pulses of positive current ( + 20 to +200 nA, 5 ms) with a negative retention current to prevent DA leakage (−10 to −15 nA). Endogenous DA release was evoked by electrical stimulation using a double-tipped electrode pulled from septum theta glass capillaries (WPI), visualized with sulforhodamine 101 (10 µM). A single pulse (10 µA, 0.5 ms) was used to evoke DA release in striatal slices, while a train of stimuli (5 × 20 µA at 25 Hz) was used in cortical slices. Changes of fluorescence are expressed as ∆F/F0, wherein baseline fluorescence (F0) was measured from the 300 ms before DA stimulation in spot photometry measurements, or defined as the average of 10 frames preceding stimulation in rasterized movies. Peak ∆F/F0 was calculated by maximum peak detection from the time period following stimulation ( ~ 500 ms) or from the rasterized frame immediately following stimulation. Data were analyzed in AxoGraph (J. Clements) and ImageJ.

T1 sequence (Q61616 whole entry): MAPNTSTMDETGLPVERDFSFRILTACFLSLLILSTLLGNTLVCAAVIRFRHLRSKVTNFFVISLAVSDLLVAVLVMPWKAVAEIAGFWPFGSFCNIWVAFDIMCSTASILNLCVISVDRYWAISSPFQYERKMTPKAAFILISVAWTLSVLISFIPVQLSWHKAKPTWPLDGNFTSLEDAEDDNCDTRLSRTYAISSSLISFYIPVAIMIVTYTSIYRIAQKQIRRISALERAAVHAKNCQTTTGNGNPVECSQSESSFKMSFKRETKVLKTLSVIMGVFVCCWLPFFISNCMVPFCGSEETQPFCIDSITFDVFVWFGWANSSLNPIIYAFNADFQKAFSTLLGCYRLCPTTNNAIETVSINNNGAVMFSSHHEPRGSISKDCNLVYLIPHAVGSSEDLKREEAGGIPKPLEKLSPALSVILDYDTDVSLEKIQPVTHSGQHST

C[C@H]1c2cccc(C(C)(C)O)c2C[C@H](CO)N1C(=O)Cc1c(Cl)cccc1Cl [DETQ, 2-(2,6-dichlorophenyl)-1-((1S,3R)-3-(hydroxymethyl)-5-(2-hydroxypropan-2-yl)-1-methyl-3,4-dihydroisoquinolin-2(1H)-yl)ethan-1-one]
Kb [1]: 312 nM
fold less potent on msDRD1 than on hmDRD1 [1]: > 30 fold
selectivity for human vs mouse D1 in potentiator mode ([1]; potentiation of dopamine induced activation of cAMP, ref Hao et al., 2019, Wang et al., 2018): 30 x
partial potentiation of dopamine (% of max potentiation) ([1]; rodent (rat or mouse), ref Hao et al., 2019, Wang et al., 2018): 45-53%
maximal leftward shift in the EC50 of DA [2]: ~ 8 fold
sensor response to DETQ in the absence of DA [2]: could not trigger a response
effect on the DA sensitivity of dLight1.3b ([2]; D1-PAM 5 μM): strong positive allosteric effect
sensor fluorescence in the presence of sub-maximal DA ([2]; DA 100 nM, DETQ 100 nM): strong and significant increase
maximal fluorescent response to a saturating concentration of DA ([2]; DA 100 µM, wide range of DETQ concentrations): not affected
Kb ([2]; DA titrations with 1 nM to 450 nM DETQ, allosteric EC50 shift, read-out: allosteric affinity constant (Kb)): 54 nM
effect on sensor responses to noradrenaline (NE) ([2]; DETQ 50 nM): potentiation
α factor ([2]; allosteric EC50 shift fit): 8.6
Kb [3]: 11.4 nM
maximal potentiation of dopamine ([3]; human clones, ref Hao et al., 2019, Wang et al., 2018): 75-85%
in vitro potency as a D1PAM at the hD1 receptor ([3]; ref Svensson et al., 2017, Hao et al., 2019): 11 nM
activity in potentiator mode [4]: no activity was found
brain levels of the histamine metabolites ([5]; hD1 mice, same dose): significant elevations
brain levels of the histamine metabolites ([5]; wild type mice, 10 mg/kg PO): did not change
fluorescence changes evoked by train of stimuli in PFC slices ([6]; 5 × 20 µA, 0.5 ms, 25 Hz, DETQ): unmask small increases
area of dLight1.3b ∆F/F0 >2σ noise ([6]; DA iontophoresis 20 nA, DETQ 200 nM): significantly increased
peak ∆F/F0 and area (>2σ noise) evoked by single electrical stimulation ([6]; dorsal striatum slices, 10 µA, 0.5 ms, DETQ): significantly enhanced
decay time of fluorescence changes (spot photometry) ([6]; ejection current 50 nA, DETQ 200 nM): slowed
increase of dLight sensitivity (peak ∆F/F0 over ejection currents) ([6]; striatal slices, DA iontophoresis, DETQ 200 nM): 2.6 fold
